Consider two molecules from patent US9464326B2, “Total and phosphorylated IL-1 receptor-associated kinase-1 and IL-1 receptor-associated kinase-4 as a biomarker for cancer progression and chemotherapy resistance” (University of Maryland, Baltimore, priority 2012, dated 2016).

One test concerns A375 melanoma cells. Nature of the test: A375 melanoma xenograft model. The settings on record: IRAK-1,-4 inhibitor 35 mg/kg intratumorally, vinblastine 0.25 mg/kg i.p.; control 17 days.
The target of the next test is IRAK-4 (Homo sapiens, UniProt Q9NWZ3). The settings on record: supplier (EMD Millipore) description; cited from earlier work.
Chain of IRAK-4 (Q9NWZ3 whole entry): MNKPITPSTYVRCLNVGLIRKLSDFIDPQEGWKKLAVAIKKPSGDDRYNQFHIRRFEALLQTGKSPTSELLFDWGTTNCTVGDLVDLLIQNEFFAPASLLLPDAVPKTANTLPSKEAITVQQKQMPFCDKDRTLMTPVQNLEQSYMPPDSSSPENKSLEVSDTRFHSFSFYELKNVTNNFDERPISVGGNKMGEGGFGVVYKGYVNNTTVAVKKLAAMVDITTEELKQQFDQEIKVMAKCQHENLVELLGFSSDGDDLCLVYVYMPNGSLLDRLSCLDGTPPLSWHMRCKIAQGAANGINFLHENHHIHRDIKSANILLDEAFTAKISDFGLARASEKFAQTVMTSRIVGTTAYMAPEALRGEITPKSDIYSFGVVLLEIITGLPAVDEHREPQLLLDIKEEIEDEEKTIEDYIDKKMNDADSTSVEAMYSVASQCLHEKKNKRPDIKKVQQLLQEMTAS
For another test, the system named is CCRF-CEM cells. Nature of the test: Senescence gene qPCR array / RT-PCR. The settings on record: array of 84 senescence genes, COL1A1 not validated by RT-PCR. The class given is cell-based, human. An excerpt:
To further study the role of IRAK-1,-4 signaling in cellular senescence, we compared the expression of 84 key genes involved in the initiation and progression of senescence. […] Expression levels of CDKN1C, EGR1 and ID1 were also altered in all four T-ALL patient samples collected from IRAK-1,-4 inhibitor-treated NSG mice (FIG. 15E).

The subject of another test is HSB-2. Description: Proliferation (3H-thymidine) of HSB-2. The class given is cell-based, human. An excerpt: (§1) CCRF-CEM, CEM/C1, CEM/C2, CEM-C7, Jurkat, Loucy, Molt-4, HSB-2, SUP-T1, Hut 78, HH, Hut 102, MO, and H9 T-leukemia and T-lymphoma cell lines were purchased from the American Type Culture Collection (Manassas, Va., USA). All of the cell lines were initially expanded and cryopreserved within one month of receipt. Cells were typically used for 6 months at which time a fresh vial of cryopreserved cells was used. Total T cells from healthy donors were isolated via negative selection followed by positive selection using a CD3+ selection kit (Invitrogen, Carlsbad, Calif.). T cells were isolated from patients with T-ALL bone marrow or peripheral blood samples containing more than 70% leukemia cells using a CD2+ isolation kit (STEMCELL Technologies, Vancouver, Canada). All tissues were collected under institutional IRB-approved protocols and all participants gave written informed assent/consent. For in vitro experiments, T-ALL cells were cultured in AIM-V medium supplemented with 20% human AB serum in the presence of recombinant human stem cell factor (50 ng/mL; Amgen, Thousand Oaks, Calif.), insulin (20 nM; Sigma-Aldrich, St Louis, Mo., USA) and IL-7 (50 ng/mL; R&D Systems, Minneapolis, Minn., USA). In other experiments, protein lysate was collected using the Full Moon Biosystems (Sunnyvale, Calif., USA) buffer prior to protein examination by western blot or protein array.
(§2) Cells were cultured in a 96-well plate (Corning Costar, Corning, N.Y., USA) with various concentrations of TLR ligands 1-9, starting at 10 μg/ml, in a final volume of 200 ul. TLR ligands were diluted 2-fold. Cell lines (25-40×10^3/well) were cultured for 54 hours, whereas fresh patient-derived T-ALL cells (200×10^3/well) were cultured for 30 hours prior to adding [^3H]-thymidine for 18 hours. After this time point, cells were harvested with a Packard Filter-Mate-96 cell harvester (Perkin Elmer, Waltham, Mass., USA) and counted on Packard Top Count-NXT (Perkin Elmer, Waltham, Mass., USA). Results were expressed as average counts per minute (cpm). In some experiments CCRF-CEM cells were pre-treated with TLR1-TLR2 ligand (Pam3CysK4; 2.5 ug/ml) for 48 hrs, washed, and then cultured in the presence of varying concentrations of FBS. Forty-eight hours later, proliferation (±SD) was determined by ^3H-thymidine incorporation. Alternatively, apoptosis was measured by flow cytometry after staining cells with Annexin-V (BD Pharmingen, San Diego, Calif., USA) and propidium iodide (Sigma). Cell number was counted under microscopy by staining cells with trypan blue.
The following TLR ligands were purchased from Invivogen (San Diego, Calif., USA): tripalmitoyl-S-(bis(palmitoyloxy)propyl)-Cys-Ser-(Lys)3-Lys (TLR1-2); Poly I:C (TLR3); ultrapure S. Minnesota Lipopolysaccharide (TLR4); S. typhimurium flagellin (TLR5); FSL-1 (TLR2/6); Imiquimod (TLR7); ssRNA40/Lyovec (TLR8); CpG-ODN 2006 (TLR9).

In another test the test system is HH. Nature of the test: Proliferation (3H-thymidine) of HH. The class given is cell-based, human. The note with it: 3H-thymidine uptake, 72 h.
Source text: as §1, with “In other experiments, protein lysate was collected using the Full Moon Biosystems (Sunnyvale, Calif., USA) buffer prior to protein examination by western blot or protein array.” left out
Cells were cultured in a 96-well plate (Corning Costar, Corning, N.Y., USA) with various concentrations of TLR ligands 1-9, starting at 10 μg/ml, in a final volume of 200 ul. […] After this time point, cells were harvested with a Packard Filter-Mate-96 cell harvester (Perkin Elmer, Waltham, Mass., USA) and counted on Packard Top Count-NXT (Perkin Elmer, Waltham, Mass., USA). Results were expressed as average counts per minute (cpm). […] Forty-eight hours later, proliferation (±SD) was determined by ^3H-thymidine incorporation. Alternatively, apoptosis was measured by flow cytometry after staining cells with Annexin-V (BD Pharmingen, San Diego, Calif., USA) and propidium iodide (Sigma). Cell number was counted under microscopy by staining cells with trypan blue. […]

The subject of the next test is CEM-C2. Description: Proliferation (3H-thymidine) of CEM-C2. The class given is cell-based, human.
Source text: as §1
as §2, with “blue. […]” for “blue.”

Protocol for A375 melanoma cells: (A-B) NSG mice (n=5) were injected subcutaneously with A375 melanoma cells. When tumors reached a size of approximately 50 mm^2 mice remained untreated or injected intraperitoneally with vinblastine mg/kg; administered every 2 days for 10 days), or peritumorally with IRAK-1,-4 inhibitor (35 mg/kg), or vinblastine plus IRAK.-1,-4 inhibitor. Tumor sizes were calculated by measuring perpendicular by longitudinal diameter;*, P<0.05. Mouse survival data were analyzed using the exact log-rank test;*, P<0.05, **P<0.001.
NOD.Cg-Prkdc^scid Il2rg^tmWJZ; SzJ IL2RG (NSG) mice (Jackson Laboratories, Bar Harbor, Me.) were subcutaneously (s.c.) injected with 2.5×10^6 A375 melanoma cells delivered in PBS. […] When tumors reached a size of approximately 50 mm^2 mice were injected intratumorally (i.t.) with 35 mg/kg of IRAK-1,-4 inhibitor or an equal volume of vehicle (DMSO). Mice were intraperitoneally (i.p.) injected with vinblastine (0.25 mg/kg) every 2 days for 5 days starting on the same day that mice received with IRAK-1,-4 inhibitor. Tumor sizes were analyzed using a mixed model approach for repeated measurements and mouse survival data were analyzed with the exact log-rank test.

Take `O=C(Nc1nc2ccccc2n1CCN1CCOCC1)c1cccc([N+](=O)[O-])c1` [IRAK-1,-4 inhibitor]: in the test on A375 melanoma cells, the median survival is 19 days. Also, the “inhibition of IRAK-4” value at IRAK-4 is “selectively inhibits”. In the test on CCRF-CEM cells, the “expression of CDKN1C, COL1A1, EGR1, ID1, PLAU and SERPINES” value was “significantly up- or down-regulated”.

As for “tripalmitoyl-S-(bis(palmitoyloxy)propyl)-Cys-Ser-(Lys)3-Lys [Pam3Cysk4]”, the “Proliferative effects of TLR ligands” value is recorded as “− (reduced proliferation)” in the test on HSB-2 (3H-thymidine uptake, 72 h); “∘” in the test on HH; “+ (enhanced proliferation by 25% or greater)” in the test with CEM-C2 (3H-thymidine uptake, 72 h). For the same molecule, the results for the “TLR ligand concentration in parentheses below the symbol” value with HSB-2 (no unit in table (μg/ml)) and with CEM-C2 (no unit in table (μg/ml)) were “(5)” and “(2.5)”, respectively.
